Measurements as given in the supplement of paper PMC6045584.

How the values were obtained:
Assay in all cases: area under dose-response curve of surviving fraction (unscaled, Aref=0) (surviving fraction x log10(nM)); higher = more resistant
Settings in all cases: exposure time: 5 days; dose range 0.5-1000 nM
PLX-4720 = compound: CCCS(=O)(=O)Nc1ccc(F)c(C(=O)c2c[nH]c3ncc(Cl)cc23)c1F [PLX-4720]
Procedure, shortened: (§1)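 Tumour cell lines in 384-well plates were exposed for five days to eight inhibitor concentrations from 0.5 to 1000 nM. Viability was read by CellTiter-Glo luminescence, normalised to DMSO-only wells, in three screens per line. Dose-response survival curves were fitted to surviving fractions by 3-parameter logistic regression in the drc R package. Area under the curve is the unscaled activity area (Aref = 0) over log10 dose.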

ERLOTINIB = compound: C#Cc1cccc(Nc2ncnc3cc(OCCOC)c(OCCOC)cc23)c1 [ERLOTINIB]
Procedure, shortened: as §1

METHOTREXATE = compound: CN(Cc1cnc2nc(N)nc(N)c2n1)c1ccc(C(=O)N[C@@H](CCC(=O)O)C(=O)O)cc1 [METHOTREXATE]
Procedure, shortened: as §1

SUNITINIB = compound: CCN(CC)CCNC(=O)c1c(C)[nH]c(/C=C2\C(=O)Nc3ccc(F)cc32)c1C [SUNITINIB]
Procedure, shortened: as §1

MK2206 = compound: NC1(c2ccc(-c3nc4ccn5c(=O)[nH]nc5c4cc3-c3ccccc3)cc2)CCC1 [MK2206]
Procedure, shortened: as §1

EVEROLIMUS = compound: CO[C@H]1C[C@@H]2CC[C@@H](C)[C@@](O)(O2)C(=O)C(=O)N2CCCC[C@H]2C(=O)O[C@H]([C@H](C)C[C@@H]2CC[C@@H](OCCO)[C@H](OC)C2)CC(=O)[C@H](C)/C=C(\C)[C@@H](O)[C@@H](OC)C(=O)[C@H](C)C[C@H](C)/C=C/C=C/C=C/1C [EVEROLIMUS]
Procedure, shortened: as §1

[1] = compound: O=C(NOCC1CC1)c1ccc(F)c(F)c1Nc1ccc(I)cc1Cl
Procedure, shortened: as §1

AZD4547 = compound: COc1cc(CCc2cc(NC(=O)c3ccc(N4CC(C)NC(C)C4)cc3)n[nH]2)cc(OC)c1 [AZD4547]
Procedure, shortened: as §1

MK0752 = compound: O=C(O)CC[C@H]1CC[C@@](c2cc(F)ccc2F)(S(=O)(=O)c2ccc(Cl)cc2)CC1 [MK0752]
Procedure, shortened: as §1

| Test System | area under dose-response curve (PLX-4720) | area under dose-response curve (ERLOTINIB) | area under dose-response curve (METHOTREXATE) | area under dose-response curve (SUNITINIB) | area under dose-response curve (MK2206) | area under dose-response curve (EVEROLIMUS) | area under dose-response curve [1] | area under dose-response curve (AZD4547) | area under dose-response curve (MK0752) |
| --- | --- | --- | --- | --- | --- | --- | --- | --- | --- |
| MDAMB468 BREAST | 3.1 | 3.23 | 2 | 3.17 | 3.04 | 1.93 | 3.21 | 3.6 | 3.61 |
| MFM223 BREAST | 2.87 | 4.35 | 4 | 2.38 | 2.57 | 2.56 | 3.55 | 1.63 | 3.93 |
| MHM BONE | 3.27 | 3.44 | 2.88 | 3.15 | 3.2 | 2.37 | 3.16 | 2.76 | 3.45 |
| NY BONE | 3.09 | 3.37 | 2.49 | 2.99 | 3.18 | 2.33 | 3.13 | 2.25 | 3.54 |
| OS25HAL BONE | 3.14 | 3.48 | 1.93 | 3.07 | 2.56 | 2.13 | 3.16 | 3.36 | 3.42 |
| SG43 HEADNECK | 3.93 | 2.23 | 2.93 | 3.53 | 2.3 | 3.01 | 2.18 | 2.62 | 3.25 |
| SNU475 LIVER | 2.43 | 3.21 | 3 | 2.27 | 3.02 | 1.26 | 2.41 | 3.14 | 3.31 |
| SYO1 SYNOVIAL | 2.17 | 3.34 | 1.91 | 1.69 | 2.79 | 1.81 | 2.4 | 2.4 | 3.26 |
| T47D BREAST | 3.2 | 3.73 | 2.28 | 3.18 | 2.61 | 2.24 | 3.24 | 3.76 | 3.56 |
| U2OS BONE | 3.23 | 3.46 | 2.4 | 2.94 | 3.14 | 2.39 | 3.26 | 2.79 | 3.56 |
